For orientation: IC50 means the concentration that gives 50% inhibition.

Entries after “also recorded” stand apart in the source; their conditions may differ. Where two headings read alike, the source gives them in different places.

Test [1] relates to 53BP1 foci (DNA double strand breaks) in U2OS^A:Tox^DUPR reporter cells. As to the kind of experiment: 53BP1-mCerulean foci per nuclei in U2OS^A:Tox^DUPR reporter cells. Type of test: cell-based, human. Conditions: for number of 53BP1 foci per nuclei: exposed for 8 hr, compared to DMSO/vehicle. As to the method: U2OS acceptor cells were co-transfected a construct containing the recombinase B×b1 and a mutlicistronic Tox reporter (named U2OS^A:Tox^DUPR) carrying three fluorescently labeled proteins: 53BP1-mCerulean that binds to DNA double strand breaks, H2B-mCherry and XBP1Δ-Venus which is a UPR stress related sensor. […] NCS inhibits DNA synthesis, G2 cycle arrest, apoptosis. […] Cells were plated in glass bottom well 384 well plates. To evaluate the specificity of the reporter, together with DNA inducers, three other compounds were used as controls. Thapsigargin, which induced UPR-related stress by inhibiting calcium uptake into ER (Ca^2+ is chaperone cofactor so protein folding is inhibited), tunicamycin that is also involved in UPR-related stress by inhibiting glycosylation of newly synthesized proteins, and aphidicolin which inhibits DNA replication in eukaryotes. All compounds were tested in tetraplicates in four ten-fold serial dilutions with data collection 8 hour after compound addition. Images were acquired in a Nikon Ti-E inverted Microscope equipped with motorized stage with autofocus and OkoLab stage top environmental control chamber (supplied with CO2 and temperature controlled for live cell imaging) (FIG. 11A).
The number of 53BP1-mCerulean was used as a metric for double strand breaks and DNA damage. For each assay, the images were analyzed using the open source software CellProfiler for quantification of the number of foci per nuclei and the data generated was further processed to determine compound EC50S.
Image analysis was conducted using the open source software CellProfiler. After importing the images, nuclei were identified from the H2B-mCherry images as primary objects, followed by enhancement of mCerulean structures, and detection of these enhanced structures as objects. The nuclei and the foci are related and the number of children (foci) per nuclei is counted. Data from CellProfiler was exported to Python programming language for further computation.
Using Python, the data was grouped by well and the average number of foci/nuclei determined. The wells that corresponded to the same conditions were grouped. All the data was exported to GraphPad Prism 7.0 software to generate plots. A non-linear regression was used to fit the data and to calculate the concentration where we observe 50% activity of the enhancer (EC50S) (FIG. 11B)

Test [2] deals with Ras-MAPK pathway in HEK293 multicolor stable cell line expressing KRas(G12C), C-Raf, Mek and Erk reporters. Kind of test: Live-cell imaging of 4-color MAPK reporter cell line (reporter localization). Type of test: cell-based, human. Conditions: for CRaf localization / Erk localization / KRas localization: treated for four or nine hours, relative to control. The procedure: The two-color stable cell lines were plated in 96 well glass-bottom plates overnight and treated with doxycycline at 1 μg/m1 to induce fluorescent reporter expression. Cells were treated with different compounds for four or nine hours. Cells were imaged with an epifluorescence Nikon™microscope with an OKOLab™ incubator system and images were acquired using a Plan Fluor™40× objective and NIS-Elements® software (Nikon™). An analogous procedure, using N-terminal tagged KRas(G12C), CRaf, Mek and Erk cloned into the multicistronic construct, was used to generate monoclonal, inducible 4-color cell lines with approximately balanced reporter construct expression level (FIG. 4 and FIG. 5, control)
The 4-color lines were used to visualize the MAPK pathway in live cells. HEK293 multicolor stable cell line expressing KRas(G12C), C-Raf, Mek and Erk reporters show correct localization of the 4 proteins at the plasma membrane, plasma membrane and cytoplasm, cytoplasm, nucleus, respectively (FIG. 5). Monitoring of cells under the microscope allowed visualization of the response to Ras-MAPK pathway inhibitors. To monitor response to inhibitors, after protein induction cell were treated with: GDC-0879, FR180204, lovastatin and PD0325901 for four or nine hours.

Test [3] deals with MAPK pathway activation (mCherry-Erk nuclear localization) in U2OS MAPK R19 cells expressing K-Ras(wt). Kind of test: MAPK reporter assay, nuclear versus cytoplasmic mCherry-Erk, U2OS MAPK R19. Conditions: Homo sapiens, read-out: IC50 (inhibition of nuclear localization of mCherry-Erk). Type of test: cell-based. As to the method:
(§1) Three MAPK reporter cell lines were used to visualize the MAPK pathway in live cells and to analyze dose responses of MAPK inhibitors. U2OS MAPK R19, R20 and R21 multicolor stable cell line expressing mCerulean-CRaf, untagged Mek, mCherry-Erk and Venus-KRas (wt, G12C and G12D, respectively) were plated in glass bottom well 96 well plates. Twenty-four hours after plating cells were treated with doxycycline at 1 μg/ml for 5 h to induce fluorescent reporter expression. Monitoring of cells under the microscope allowed visualization of the response to Ras-MAPK pathway inhibitors. Two inhibitors, Trametinib an inhibitor of Mekl and […], inhibitor of Mek1/2 were used in the assay. […]
(§2) For each assay, the images were analyzed using CellProfiler (open source software for image analysis, Kamensty, L. et al., Bioinformatics (2011)) for quantification of the ratio of nuclear versus cytoplasmic Erk fluorescence intensity and the data generated was further processed to determine compound IC50S.
(§3) Image analysis used the open source software CellProfiler. […] The nuclear area of each cell was subtracted from the cytoplasm area to give the final cytoplasm mask. mCherry intensity for the nucleus and the cytoplasm of each cell was calculated from the original mCherry-Erk image and the nuclear to cytoplasm ratio of mCherry intensity was calculated per cell and exported as a HDFS file for analysis. […]

Test [4] relates to MAPK pathway activation (mCherry-Erk nuclear localization) in U2OS MAPK R20 cells expressing K-Ras(G12C). Kind of test: MAPK reporter assay, nuclear versus cytoplasmic mCherry-Erk, U2OS MAPK R20. Type of test: cell-based. Conditions: Homo sapiens, read-out: IC50 (inhibition of nuclear localization of mCherry-Erk). The procedure:
as §1, §2, §3
Background: A reporter such as luciferase makes a cellular process visible.

Test [5] has as its system MAPK pathway activation (mCherry-Erk nuclear localization) in U2OS MAPK R21 cells expressing K-Ras(G12D). Kind of test: MAPK reporter assay, nuclear versus cytoplasmic mCherry-Erk, U2OS MAPK R21. Type of test: cell-based. Conditions: Homo sapiens, read-out: IC50 (inhibition of nuclear localization of mCherry-Erk). The procedure: as §1, §2, §3
Test [6] concerns MAPK signaling in cells expressing K-Ras(wt), K-Ras(G12C) and K-Ras(G12D). Kind of test: Imaging of mCherry-Erk localization in U2OS^A-Tet MAPK R19, R20 and R21 reporter cell lines. The following applies: exposed for 1 hr, compared to DMSO treated cells. Type of test: cell-based, human. The procedure:
MAPK pathway inhibitors were tested for their ability to inhibit nuclear localization of mCherry-tagged ERK in three different cell lines expressing K-Ras wild type, K-Ras G12C or K-Ras G12D. To quantify these images we calculated the ratio of nuclear to cytoplasmic ERK in single cells for four images per sample and plotted the resulting values as a histogram.
as §1, §2

The subject of test [7] is 53BP1 foci in Tox^DUPR reporter cells pooled with Tox^ORG reporter cells. As to the kind of experiment: Pooled assay, U2OS^A Tox^ORG and Tox^DUPR reporter cells mixed 1:1, 53BP1 foci per nuclei. Type of test: cell-based, human. The procedure:
U2OS^A:Tox^DUPR and U2OS^A:Tox^ORG were combined in a pooled assay with an aggregate of […] biosensors and phenotypic readouts (MTS-Venus, H2B-TagBFP, mCherry-LC3, 53BP1-cerulean, XBP1-Venus and H2B-mCherry) where DNA is differently labeled in each of the two reporter cell lines (FIG. 13).
The two U2OS^A Tox^ORG and Tox^DUPR reporter cell lines were mixed 1:1 and plated in 384 well plates 24 h before compound addition. […] NCS inhibits DNA synthesis, G2 cycle arrest, apoptosis. Both compounds are inducers of DNA double strand breaks and consequently increase the number of 53BP1 nuclear foci. Eight hours post compound addition, images were acquired in a Nikon Ti-E inverted Microscope equipped with motorized stage with autofocus and OkoLab stage top environmental control chamber (supplied with CO2 and temperature controlled for live cell imaging) (FIG. 14).

Turning to `COc1cc([C@@H]2c3cc4c(cc3[C@@H](O[C@@H]3O[C@@H]5CO[C@@H](C)O[C@H]5[C@H](O)[C@H]3O)[C@H]3COC(=O)[C@H]23)OCO4)cc(OC)c1O` [Etoposide], the EC50 in test [1] (Homo sapiens, 8 hour after compound addition, read-out: EC50 (number of 53BP1 foci/nuclei)) came to 161 nM.
As to `Nc1[nH]nc2nnc(-c3c(-c4ccccc4)nn4ccccc34)cc12` [FR180204], the CRaf localization entry in test [2] is listed as “moderate increase of CRaf levels at the plasma membrane”.
As to `CC[C@H](C)C(=O)O[C@H]1C[C@@H](C)C=C2C=C[C@H](C)[C@H](CC[C@@H]3C[C@@H](O)CC(=O)O3)[C@H]21` [Lovastatin], the “displacement of KRas from the cell membrane” value in test [2] (***p<0.0001) is reported as “significant displacement of KRas from the cell membrane”. Further, in test [2], the CRaf localization entry is reported as “C-Raf is not enriched at the membrane”, the Erk localization result is given as “changes its localization to the cytoplasm” and the KRas localization result is listed as “absence of KRas at the membrane”.
Take `O=C(NOC[C@H](O)CO)c1ccc(F)c(F)c1Nc1ccc(I)cc1F` [PD 0329501]: the concentration for half-maximal inhibition (IC50) in test [3] (1 h) worked out at 9 nM. The IC50 in test [4] (1 h) came out at 13 nM. In addition, in test [5] (1 h), the IC50 is 76 nM. In addition, the mCherry-Erk localization entry in test [6] is given as “increase of mCherry-Erk at the cytoplasm”. In test [2], the CRaf localization result is “none of Mek upstream proteins (KRas and C-Raf) showed alteration in localization”; the Erk localization result is on record as “redistribution of the downstream effector, Erk, from the nucleus to the cytoplasm”; the KRas localization entry is “none of Mek upstream proteins (KRas and C-Raf) showed alteration in localization”.
On to `CC(=O)Nc1cccc(-n2c(=O)n(C3CC3)c(=O)c3c(Nc4ccc(I)cc4F)n(C)c(=O)c(C)c32)c1` [Trametinib], for which the IC50 in test [3] (cells expressing K-Ras(wt), 1 hour after compound addition) worked out at 9 nM; in test [4] (cells expressing K-Ras(G12C), 1 hour after compound addition), 55 nM; in test [5] (cells expressing K-Ras(G12D), 1 hour after compound addition) it was 28 nM.
As to `C[C@@]1(CO)[C@H](O)CC[C@@]2(C)[C@H]1CC[C@H]1C[C@@H]3C[C@@]12CC[C@]3(O)CO` [aphidicolin], the “number of 53BP1 foci per nuclei” value in test [1] is “do not show any effect in the number of 53BP1 foci”.
Still for that read-out and setting: as for `C/C=C(/C)C(=O)O[C@H]1C(C)=C2[C@H]([C@@H]1OC(=O)CCCCCCC)[C@@](C)(OC(C)=O)C[C@H](OC(=O)CCC)[C@@]1(O)[C@H]2OC(=O)[C@@]1(C)O` [thapsigargin, Thapsigargin], the entry is “do not show any effect in the number of 53BP1 foci”.
Turning to neocarzinostatin [NCS], the “EC50 (number of 53BP1 foci/nuclei)” value in test [1] (8 hour after compound addition) stood at 0.257 µg/mL; in test [1] (reporter cells assayed by itself (FIG. 11B)) it was 257 µg/mL; in test [7] (pooled with other reporter cell lines (FIG. 14), eight hours post compound addition), 376 µg/mL. In addition, the “number of 53BP1 foci per nuclei” value in test [1] is “increase in the number of foci per nuclei”; in test [7] (pooled Tox^ORG and Tox^DUPR cells, 8 hr, compared to vehicle), “increase in the number of foci/nuclei specifically in Tox^DUPR reporter cells; also recorded: increase in the number of foci per nuclei”.
As to tunicamycin, the “number of 53BP1 foci per nuclei” value in test [1] is “do not show any effect in the number of 53BP1 foci”.

(Values after patent US20210246455A1, “MULTIPLEX ASSAY” (priority 2017, published 2021).)
